Assay results published in US10792289B2 (Horizon Orphan LLC, priority 2009, dated 2020).

Key:
[1] = tested on: stable CF patients; assay: Phase 1b study: pulmonary function tests (FEV1); assay type: in vivo, human
Procedure: All patients had had P. aeruginosa cultured from sputum within the previous 24 months and at the screening visit. Study drug was administered twice daily for up to 14 days at three doses by aerosol using a PART eFlow device. Respirable delivered doses (RDD) were approximately 40 mg, 80 mg, and 120 mg per treatment, corresponding to loaded doses of 78 mg, 175 mg, and 260 mg, respectively. Thus, the estimated total daily RDDs were 80 mg, 160 mg, and 240 mg. Study drugs were administered at 30 mg/ml (for 40 mg dose) or 50 mg/ml (for 80 mg and 120 mg doses).
In Table 3, relative change from baseline (CBG) was calculated as ‘Result’ FEV1 minus ‘Baseline’ FEV1 divided by ‘Baseline’ FEV1.

[2] = tested on: non-fermenting gram negative bacilli (NFGNB), excluding P. aeruginosa; assay: Phase 2 study: non-fermenting gram negative bacilli density in sputum; assay type: in vivo
Procedure: The following dosage regimens (as nebulizer loaded doses) were evaluated: 120 mg QD (daily); 240 mg QD (daily); and 240 mg BID (twice daily). Based on aerosol characterization studies of the 100 mg/ml formulation, these loaded doses of 120 and 240 mg correspond estimated respirable delivered doses (RDDs) using a PART eFlow nebulizer of about 65 and 130 mg, respectively.
Patients were assessed on Day 1, 7, 14, and 28, and then up to 28 days after completion of study drug, namely, Days 42 and 56. The end of the study was defined as the last visit of the last patient. Study populations included: (1) safety/modified intent to treat (MITT) population which included all patients enrolled in the study that receive at least one dose of study drug; (2) efficacy evaluable (EE) population which included all patients enrolled in the study without major protocol violations that receive at least 80% of study drug doses during the 28 days of study drug therapy; and (3) pharmacokinetic (PK) population which included all patients that receive at least one dose of study drug and have at least one PK blood sample collected.
Changes in P. aeruginosa density (log lo CFU/g sputum) for sputum samples taken from the EE and MITT populations are summarized in Tables 10 and 11, respectively (SD=standard deviation). […] Tables 18 and 19 summarize changes in non-fermenting gram negative bacilli density (NFGNB), excluding P. aeruginosa, with only patients with positive NFGNB counts at baseline, for EE and MITT populations, respectively. Tables 20 and 21 summarize changes for presumptive S. aureus density (log10 CFU/g sputum) for only patients with positive S. aureus counts at baseline, for EE and MITT populations, respectively.

[3] = 80 mg RDD BID, Day 1 predose baseline
[4] = 120 mg RDD BID, Day 1 predose baseline
[5] = EE population, Combined 240 mg QD and BID
[6] = EE population, Combined Levofloxacin
[7] = MITT population, Combined 240 mg QD and BID
[8] = MITT population, Combined Levofloxacin

## C[C@H]1COc2c(N3CCN(C)CC3)c(F)cc3c(=O)c(C(=O)O)cn1c23 [Levofloxacin, levofloxacin]
[1]; 40 mg RDD BID, Day 1 predose baseline
  FEV1, median: 2.30 L
[1]; 40 mg RDD BID, Day 2 predose
  FEV1, median: 2.32 L
[1]; 40 mg RDD BID, Day 7
  FEV1, median: 2.30 L
[1]; 40 mg RDD BID, Day 14 predose
  FEV1, median: 2.30 L
[1]; 40 mg RDD BID, Day 21/ET
  FEV1, median: 2.07 L
[1]; [3]
  FEV1, mean: 2.06 L
  FEV1, median: 1.95 L
[1]; 80 mg RDD BID, Day 2 predose
  FEV1, median: 2.00 L
[1]; 80 mg RDD BID, Day 7
  FEV1, median: 2.08 L
[1]; 80 mg RDD BID, Day 14 predose
  FEV1, median: 2.10 L
[1]; 80 mg RDD BID, Day 21/ET
  FEV1, mean: 2.03 L
  FEV1, median: 2.04 L
[1]; [4]
  FEV1, mean: 2.56 L
  FEV1, median: 2.23 L
[1]; 120 mg RDD BID, Day 2 predose
  FEV1, mean: 2.73 L
  FEV1, median: 2.38 L
[1]; 120 mg RDD BID, Day 7
  FEV1, mean: 3.07 L
  FEV1, median: 2.40 L
[1]; 120 mg RDD BID, Day 14 predose
  FEV1, mean: 3.12 L
  FEV1, median: 2.57 L
[1]; 120 mg RDD BID, Day 21/ET
  FEV1, mean: 2.75 L
  FEV1, median: 2.48 L
[2]; EE population, 120 mg QD
  NFGNB density, Change from Baseline to Day 7, Mean: −1.15 log10 CFU/g sputum
  NFGNB density, Day 1, Mean: 5.69 log10 CFU/g sputum
  NFGNB density, Day 7, Mean: 4.54 log10 CFU/g sputum
  NFGNB density, Day 14, Mean: 3.15 log10 CFU/g sputum
  NFGNB density, Day 28, Mean: 5.10 log10 CFU/g sputum
[2]; EE population, 120 mg QD, Day 14
  NFGNB density, Change from Baseline to Day 28, Mean: −2.54 log10 CFU/g sputum
[2]; EE population, 120 mg QD, Day 28
  NFGNB density, Change from Baseline to Day 28, Mean: −1.44 log10 CFU/g sputum
[2]; EE population, 240 mg BID
  NFGNB density, Change from Baseline to Day 7, Mean: −0.51 log10 CFU/g sputum
  NFGNB density, Day 1, Mean: 5.52 log10 CFU/g sputum
  NFGNB density, Day 7, Mean: 5.01 log10 CFU/g sputum
  NFGNB density, Day 14, Mean: 6.02 log10 CFU/g sputum
  NFGNB density, Day 28, Mean: 5.01 log10 CFU/g sputum
[2]; EE population, 240 mg BID, Day 14
  NFGNB density, Change from Baseline to Day 28, Mean: 0.50 log10 CFU/g sputum
[2]; EE population, 240 mg BID, Day 28
  NFGNB density, Change from Baseline to Day 28, Mean: −0.51 log10 CFU/g sputum
[2]; EE population, 240 mg QD
  NFGNB density, Change from Baseline to Day 7, Mean: −2.47 log10 CFU/g sputum
  NFGNB density, Day 1, Mean: 4.65 log10 CFU/g sputum
  NFGNB density, Day 7, Mean: 2.18 log10 CFU/g sputum
  NFGNB density, Day 14, Mean: 2.04 log10 CFU/g sputum
  NFGNB density, Day 28, Mean: 1.36 log10 CFU/g sputum
[2]; EE population, 240 mg QD, Day 14
  NFGNB density, Change from Baseline to Day 28, Mean: −2.61 log10 CFU/g sputum
[2]; EE population, 240 mg QD, Day 28
  NFGNB density, Change from Baseline to Day 28, Mean: −3.29 log10 CFU/g sputum
[2]; [5]
  NFGNB density, Change from Baseline to Day 7, Mean: −1.60 log10 CFU/g sputum
  NFGNB density, Day 1, Mean: 5.03 log10 CFU/g sputum
  NFGNB density, Day 7, Mean: 3.44 log10 CFU/g sputum
  NFGNB density, Day 14, Mean: 3.80 log10 CFU/g sputum
  NFGNB density, Day 28, Mean: 2.98 log10 CFU/g sputum
[2]; EE population, Combined 240 mg QD and BID, Day 14
  NFGNB density, Change from Baseline to Day 28, Mean: −1.23 log10 CFU/g sputum
[2]; EE population, Combined 240 mg QD and BID, Day 28
  NFGNB density, Change from Baseline to Day 28, Mean: −2.05 log10 CFU/g sputum
[2]; [6]
  NFGNB density, Change from Baseline to Day 7, Mean: −1.44 log10 CFU/g sputum
  NFGNB density, Day 1, Mean: 5.27 log10 CFU/g sputum
  NFGNB density, Day 7, Mean: 3.83 log10 CFU/g sputum
  NFGNB density, Day 14, Mean: 3.57 log10 CFU/g sputum
  NFGNB density, Day 28, Mean: 3.63 log10 CFU/g sputum
[2]; EE population, Combined Levofloxacin, Day 14
  NFGNB density, Change from Baseline to Day 28, Mean: −1.70 log10 CFU/g sputum
[2]; EE population, Combined Levofloxacin, Day 28
  NFGNB density, Change from Baseline to Day 28, Mean: −1.87 log10 CFU/g sputum
[2]; MITT population, 120 mg QD
  NFGNB density, Change from Baseline to Day 7, Mean: −1.15 log10 CFU/g sputum
  NFGNB density, Day 1, Mean: 5.69 log10 CFU/g sputum
  NFGNB density, Day 7, Mean: 4.54 log10 CFU/g sputum
  NFGNB density, Day 14, Mean: 3.25 log10 CFU/g sputum
  NFGNB density, Day 28, Mean: 5.10 log10 CFU/g sputum
[2]; MITT population, 120 mg QD, Day 14
  NFGNB density, Change from Baseline to Day 28, Mean: −2.54 log10 CFU/g sputum
[2]; MITT population, 120 mg QD, Day 28
  NFGNB density, Change from Baseline to Day 28, Mean: −1.44 log10 CFU/g sputum
[2]; MITT population, 240 mg BID
  NFGNB density, Change from Baseline to Day 7, Mean: −0.42 log10 CFU/g sputum
  NFGNB density, Day 1, Mean: 6.05 log10 CFU/g sputum
  NFGNB density, Day 7, Mean: 5.63 log10 CFU/g sputum
  NFGNB density, Day 14, Mean: 6.50 log10 CFU/g sputum
  NFGNB density, Day 28, Mean: 5.63 log10 CFU/g sputum
[2]; MITT population, 240 mg BID, Day 14
  NFGNB density, Change from Baseline to Day 28, Mean: 0.45 log10 CFU/g sputum
[2]; MITT population, 240 mg BID, Day 28
  NFGNB density, Change from Baseline to Day 28, Mean: −0.43 log10 CFU/g sputum
[2]; MITT population, 240 mg QD
  NFGNB density, Change from Baseline to Day 7, Mean: −2.73 log10 CFU/g sputum
  NFGNB density, Day 1, Mean: 5.26 log10 CFU/g sputum
  NFGNB density, Day 7, Mean: 2.52 log10 CFU/g sputum
  NFGNB density, Day 14, Mean: 3.08 log10 CFU/g sputum
  NFGNB density, Day 28, Mean: 2.77 log10 CFU/g sputum
[2]; MITT population, 240 mg QD, Day 14
  NFGNB density, Change from Baseline to Day 28, Mean: −2.18 log10 CFU/g sputum
[2]; MITT population, 240 mg QD, Day 28
  NFGNB density, Change from Baseline to Day 28, Mean: −2.49 log10 CFU/g sputum
[2]; [7]
  NFGNB density, Change from Baseline to Day 7, Mean: −1.77 log10 CFU/g sputum
  NFGNB density, Day 1, Mean: 5.59 log10 CFU/g sputum
  NFGNB density, Day 7, Mean: 3.82 log10 CFU/g sputum
  NFGNB density, Day 14, Mean: 4.50 log10 CFU/g sputum
  NFGNB density, Day 28, Mean: 3.96 log10 CFU/g sputum
[2]; MITT population, Combined 240 mg QD and BID, Day 14
  NFGNB density, Change from Baseline to Day 28, Mean: −1.08 log10 CFU/g sputum
[2]; MITT population, Combined 240 mg QD and BID, Day 28
  NFGNB density, Change from Baseline to Day 28, Mean: 1.63 log10 CFU/g sputum
[2]; [8]
  NFGNB density, Change from Baseline to Day 7, Mean: −1.59 log10 CFU/g sputum
  NFGNB density, Day 1, Mean: 5.62 log10 CFU/g sputum
  NFGNB density, Day 7, Mean: 4.03 log10 CFU/g sputum
  NFGNB density, Day 14, Mean: 4.11 log10 CFU/g sputum
  NFGNB density, Day 28, Mean: 4.24 log10 CFU/g sputum
[2]; MITT population, Combined Levofloxacin, Day 14
  NFGNB density, Change from Baseline to Day 28, Mean: −1.51 log10 CFU/g sputum
[2]; MITT population, Combined Levofloxacin, Day 28
  NFGNB density, Change from Baseline to Day 28, Mean: −1.58 log10 CFU/g sputum
